pIC50: −log10 of the molar value.
Legend:
[1] = target: T1, Acyl-CoA:cholesterol acyltransferase (Oryctolagus cuniculus, UniProt Q95214); assay: Compound was tested for inhibitory activity against ACAT from rabbit adrenal gland; format: tissue-based
T1 sequence (Q95214 whole entry): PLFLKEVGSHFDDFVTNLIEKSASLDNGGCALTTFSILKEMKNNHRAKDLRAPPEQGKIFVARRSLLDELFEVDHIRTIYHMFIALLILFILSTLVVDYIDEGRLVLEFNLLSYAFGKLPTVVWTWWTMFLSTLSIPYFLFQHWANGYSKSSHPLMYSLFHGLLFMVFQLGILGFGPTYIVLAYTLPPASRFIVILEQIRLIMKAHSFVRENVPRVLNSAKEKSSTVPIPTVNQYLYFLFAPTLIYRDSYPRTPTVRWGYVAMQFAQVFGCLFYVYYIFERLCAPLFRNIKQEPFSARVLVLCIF

[2] = target: T1, Acyl-CoA:cholesterol acyltransferase; assay: Compound was tested for inhibitory activity against ACAT from rabbit liver
O-acyltransferase = O-acyltransferase (Oryctolagus cuniculus, UniProt G1SFD9); assay: Compound was tested for inhibitory activity against ACAT from rabbit intestine; format: tissue-based
O-acyltransferase, sequence (G1SFD9 1-524): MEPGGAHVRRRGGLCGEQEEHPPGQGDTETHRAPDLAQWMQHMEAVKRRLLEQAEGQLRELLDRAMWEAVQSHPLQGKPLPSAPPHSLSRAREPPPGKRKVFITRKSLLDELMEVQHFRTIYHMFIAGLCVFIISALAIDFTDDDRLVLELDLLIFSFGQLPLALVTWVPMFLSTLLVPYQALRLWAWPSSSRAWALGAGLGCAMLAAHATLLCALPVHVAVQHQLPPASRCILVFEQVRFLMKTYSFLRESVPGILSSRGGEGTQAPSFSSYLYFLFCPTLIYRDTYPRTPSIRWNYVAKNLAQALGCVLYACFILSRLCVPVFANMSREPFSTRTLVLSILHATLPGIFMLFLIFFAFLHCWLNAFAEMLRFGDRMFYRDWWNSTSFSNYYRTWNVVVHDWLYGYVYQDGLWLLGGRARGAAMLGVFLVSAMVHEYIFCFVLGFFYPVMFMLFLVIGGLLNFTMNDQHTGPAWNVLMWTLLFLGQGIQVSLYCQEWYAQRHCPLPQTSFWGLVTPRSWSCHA

| SMILES | pIC50 [1] | pIC50 [2] | pIC50 (O-acyltransferase) |
| --- | --- | --- | --- |
| CCCCCCCCCCC(C)(C)C(=O)Nc1c(OC)cc(OC)cc1OC [CL-976] | 5.71 | 6.72 | – |
| C/C=C/C/C=C/C/C=C/C/C=C/C/C=C/C/C=C/CCCC(=O)Nc1c(C(C)C)cccc1C(C)C | 6.64 | 7.25 | 7.35 |
| CCCCCCCCCCCCCC(=S)Nc1c(C(C)C)cccc1C(C)C | 6.26 | 7.82 | 8.22 |
